Measured values from patent US4668397A, “Novel cyclic octapeptide, method for production of said octapeptide, and ion extracting/separating agent using said octapeptide as principal component” (Agency of Industrial Science & Technology, priority 1984, dated 1987).
Non-standard residues stand in square brackets, D forms with d. Residues, ends and D or L forms follow the SMILES beside them. *: point of attachment. Orn = NCCC[C@H](N)C(=O)O; Cbz = O=C(OCc1ccccc1)*; Boc = CC(C)(C)OC(=O)*; OBn = c1ccc(CO*)cc1; Sar = CNCC(=O)O

Legend:
[1] = Ion transfer through chloroform phase (liquid membrane) between two water phases in a U-shaped tube; settings: for Amount of ions transferred: Ca^2+, 200 μM in chloroform phase, pH 7.5, 10 hours; for transferring ability for calcium ion: from Table 2
Protocol: (§1) In a U-shaped tube 15 mm in inside diameter, two water phases (a), (b) (each 10 ml) were separated by an intervening chloroform phase (15 ml). In the water phase (a), a chloride of potassium ions and calcium ions (10 mM), picric acid (25 mM), and good buffer HEPES (10 mM) were dissolved and adjusted to pH 7.5 with lithium hydroxide. In the chloroform phase, the compound of this invention was dissolved in a concentration of 200 μM. The two water phases (a), (b) were stirred with a mechanical stirrer and the chloroform phase was stirred with a magnetic stirrer. After 10 hours of stirring, the amount of potassium ions or calcium ions which had been transferred from the water phase (a) through the chloroform phase into the water phase (b) was determined based on the absorption of picrate anion. For comparison, the procedure described above was repeated by using a naturally occurring calcium-ion ionophore A 23187, the cyclic tetrapeptide, i.e. cyclo(glycyl-ε-benzyloxycarbonyl-L-lysyl-sarcosyl-L-prolyl) (D-1), the linear octapeptide, i.e. tertiary butyloxycarbonylglycyl-ε-benzyloxycarbonyl-L-lysyl-sarcosyl-L-propyl-glycyl-ε-benzyloxycarbonyl-L-lysyl-sarcosyl-L-proline methyl ester (E-1), and using no substance dissolved in the chloroform phase.

[2] = Ion transfer through chloroform phase between two water phases in a U-shaped tube; settings: for Amount of ions transferred: K, 200 μM in chloroform phase, pH 7.5, 10 hours; for transferring ability for potassium ion: from Table 2
Protocol: as §1

[3] = Solution extraction and recovery of calcium ion; settings: 1 g compound in 100 ml chloroform; sample pH 6.9; back-extraction with 2M ammonium chloride and 2M hydrochloric acid
Protocol: (§2) The amount 100 ml of chloroform solution having dissolved therein 1 g of the compound (C-1) of this invention obtained in Example 1 and 100 ml of a sample solution containing 1 g of magnesium picrate and 100 mg of […] (adjusted to pH 6.9 with acetic acid and sodium acetate) were thoroughly shaken and then left standing for 30 minutes. From the resultant mixture, the chloroform phase was collected. The chloroform phase was washed with 100 ml of an aqueous solution containing 0.01M of lithium picrate (adjusted to pH 6.9 with acetic acid and sodium acetate), followed by collection of chloroform phase. This washing operation was repeated three times to collect the chloroform phase. This chloroform phase was thoroughly shaken with 100 ml of an aqueous solution containing 2M of ammonium chloride and 2M of hydrochloric acid. The shaken mixture was left standing at rest for 30 minutes, followed by collection of the aqueous phase. The aqueous phase was tested for recovery of calcium ion. […] At that time, the concentration of magnesium was 10^-3 times the initial concentration. Thus, by the method of solution extraction using the compound of this invention, calcium ions could be efficiently separated from a large amount of magnesium ions.

[4] = Extraction equilibrium constant, chloroform / aqueous metal ion chloride and picric acid, absorbance of picrate anion; settings: chloroform/water, pH 7.4, average of five concentrations
Protocol: The compound (C-1) of this invention obtained in Example 1 was dissolved in concentrations of […] in chloroform. Then 5-ml portions of each of the five solutions so prepared were mixed one each with 5-ml aqueous solutions (pH 7.4) of metallic ion chloride (10 mM), picric acid (25 mM), and good buffer HEPES (10 mM) and shaken for 30 minutes. The shaken mixtures were left stading for one hour. Then, based on the absorbance of picrate anion in the chloroform phase, the extraction equilibrium constants of the compound (C-1) of this invention for the various ions were determined. The results so obtained were compared with those of the comparative cyclic tetrapeptide, i.e. cyclo(glycyl-ε-benzyloxycarbonyl-L-lysyl-sarcosyl-L-prolyl) (D-1), and the linear octapeptide, i.e. tertiary butyloxycarbonylglycyl-ε-benzyloxycarbonyl-L-lysyl-sarcosyl-L-prolylglycyl-ε-benzyloxycarbonyl-[…]-L-proline methyl ester (E-1).
The results expressed as logarithms of the average values obtained by using the five chloroform solutions of varying concentration are shown in Table 1.

[5] = Solution extraction, separation from magnesium; settings: after extraction and recovery of calcium ion; sample with 1 g magnesium picrate
Protocol: as §2

## CNc1ccc2oc(C[C@H]3O[C@@]4(CC[C@H]3C)O[C@H]([C@H](C)C(=O)c3ccc[nH]3)[C@H](C)C[C@H]4C)nc2c1C(=O)O [Compound A23187]
[1]
  Amount of ions transferred: 4.7 μ · mol
[2]
  Amount of ions transferred: 0.1 μ · mol

## CN1CC(=O)N2CCC[C@H]2C(=O)NCC(=O)N[C@@H](CCCCNC(=O)OCc2ccccc2)C(=O)N(C)CC(=O)N2CCC[C@H]2C(=O)NCC(=O)N[C@@H](CCCCNC(=O)OCc2ccccc2)C1=O [Compound C-1, cyclo(glycyl-ε-benzyloxycarbonyl-L-lysyl-sarcosyl-L-prolyl)2] (cyclo(GK(Cbz)[Sar]PGK(Cbz)[Sar]P))
[3]
  recovery ratio of calcium ion: 95%
[4]; Ba^2+
  Logarithm of ion extraction equilibrium constant: 6.0
[4]; Ca^2+
  Logarithm of ion extraction equilibrium constant: 5.6
[4]; K^+
  Logarithm of ion extraction equilibrium constant: 2.6
[4]; Mg^2+
  Logarithm of ion extraction equilibrium constant: 3.4
[4]; Na^+
  Logarithm of ion extraction equilibrium constant: 2.3
[4]; Rb^+
  Logarithm of ion extraction equilibrium constant: 2.6
[1]
  Amount of ions transferred: 5.4 μ · mol
[5]
  concentration of magnesium relative to the initial concentration: 10^-3 times the initial concentration
[2]
  Amount of ions transferred: 0.5 μ · mol

## CN1CC(=O)N2CCC[C@H]2C(=O)NCC(=O)N[C@@H](CCCNC(=O)OCc2ccccc2)C(=O)N(C)CC(=O)N2CCC[C@H]2C(=O)NCC(=O)N[C@@H](CCCNC(=O)OCc2ccccc2)C1=O [Compound C-2, cyclo(glycyl-δ-benzyloxycarbonyl-L-ornithyl-sarcosyl-L-prolyl)2] (cyclo(G[Orn](Cbz)[Sar]PG[Orn](Cbz)[Sar]P))
[1]
  Amount of ions transferred: 5.1 μ · mol
[2]
  Amount of ions transferred: 0.4 μ · mol

## CN1CC(=O)N2CCC[C@H]2C(=O)NCC(=O)N[C@@H](CCC(=O)OCc2ccccc2)C(=O)N(C)CC(=O)N2CCC[C@H]2C(=O)NCC(=O)N[C@@H](CCC(=O)OCc2ccccc2)C1=O [Compound C-3, cyclo(glycyl-γ-benzyl-L-glutamylsarcosyl-L-prolyl)2] (cyclo(E(OBn)[Sar]PGE(OBn)[Sar]PG))
[1]
  Amount of ions transferred: 4.9 μ · mol
[2]
  Amount of ions transferred: 0.3 μ · mol

## CN1CC(=O)N2CCC[C@H]2C(=O)NCC(=O)N[C@@H](CC(=O)OCc2ccccc2)C(=O)N(C)CC(=O)N2CCC[C@H]2C(=O)NCC(=O)N[C@@H](CC(=O)OCc2ccccc2)C1=O [Compound C-4, cyclo(glycyl-β-benzyl-L-aspartylsarcosyl-L-prolyl)2] (cyclo(D(OBn)[Sar]PGD(OBn)[Sar]PG))
[1]
  Amount of ions transferred: 4.8 μ · mol
[2]
  Amount of ions transferred: 0.3 μ · mol

## CN1CC(=O)N2CCC[C@H]2C(=O)NCC(=O)N[C@@H](CCCCNC(=O)OCc2ccccc2)C1=O [Compound D-1, cyclo(glycyl-ε-benzyloxycarbonyl-L-lysyl-sarcosyl-L-prolyl)] (cyclo(GK(Cbz)[Sar]P))
[4]; Ba^2+
  Logarithm of ion extraction equilibrium constant: 1.9
[4]; Ca^2+
  Logarithm of ion extraction equilibrium constant: 1.7
[4]; K^+
  Logarithm of ion extraction equilibrium constant: 1.2
[4]; Mg^2+
  Logarithm of ion extraction equilibrium constant: 1.2
[4]; Na^+
  Logarithm of ion extraction equilibrium constant: 1.1
[4]; Rb^+
  Logarithm of ion extraction equilibrium constant: 1.2
[1]
  Amount of ions transferred: 0.4 μ · mol
  transferring ability for calcium ion: virtually no transferring ability
[2]
  Amount of ions transferred: 0.1 μ · mol
  transferring ability for potassium ion: virtually no transferring ability

## COC(=O)[C@@H]1CCCN1C(=O)CN(C)C(=O)[C@H](CCCCNC(=O)OCc1ccccc1)NC(=O)CNC(=O)[C@@H]1CCCN1C(=O)CN(C)C(=O)[C@H](CCCCNC(=O)OCc1ccccc1)NC(=O)CNC(=O)OC(C)(C)C [Compound E-1, tertiary butyloxycarbonylglycyl-ε-benzyloxycarbonyl-L-lysyl-sarcosyl-L-propyl-glycyl-ε-benzyloxycarbonyl-L-lysyl-sarcosyl-L-proline methyl ester] (Boc-GK(Cbz)[Sar]PGK(Cbz)[Sar]P-OMe)
[4]; Ba^2+
  Logarithm of ion extraction equilibrium constant: 1.3
[4]; Ca^2+
  Logarithm of ion extraction equilibrium constant: 1.1
[4]; K^+
  Logarithm of ion extraction equilibrium constant: 0.9
[4]; Mg^2+
  Logarithm of ion extraction equilibrium constant: 0.9
[4]; Na^+
  Logarithm of ion extraction equilibrium constant: 0.9
[4]; Rb^+
  Logarithm of ion extraction equilibrium constant: 0.9
[1]
  Amount of ions transferred: 0.3 μ · mol
  transferring ability for calcium ion: virtually no transferring ability
[2]
  Amount of ions transferred: 0.2 μ · mol
  transferring ability for potassium ion: virtually no transferring ability
